The assay has as its system patients with diabetes mellitus. The experiment in a line: Clinical application in patients with diabetes mellitus (Example 8). In kind it is in vivo, human. The conditions noted are these: for blood glucose level on an empty stomach: 10 μg i.m. 10 days. How it is done: The investigation was carried out in 36 patients aged from 16 to 83 years (7 men, 29 women). In 23 patients there was diagnosed type 1 diabetes, in 13 patients—type 2 diabetes. The disease duration varied from 1 year to 30 years. 32 patients received insulin. The majority of the patients suffering diabetes mellitus entered the hospital decompensated. Blood glucose level in these patients on an empty stomach oscillated from […]; the glycosylated haemoglobin—from 7.8 to 12.7%. All the patients were prescribed a rigid diet. All the patients were stratified randomly into 2 groups, with respect to age, sex, duration and stage of the disease (Table 7). Alongside with standard method of treatment 16 patients were prescribed Lys-Glu-Asp-Trp-NH2 [SEQ ID NO:1] tetrapeptide in dose of 10 μg (in 1 ml of 0.9% NaCl solution) intramuscularly once a day for 10 days. 4 patients suffering type 2 diabetes mellitus were prescribed together with standard treatment course Lys-Glu-Asp-Trp-NH2 [SEQ ID NO:1] tetrapeptide in dose of 100 μg (1 tablet) twice a day before meals during 10 days. Patients of the control group were administered with 1 ml of 0.9% of NaCl solution as a placebo following the same scheme.

Where [1] appears, read: of 16 insulin-treated patients, 10 μg i.m. once a day for 10 days.
Setting [2] is: tablets, patients treated with oral anti-diabetic medicine.

Residues, ends and D or L forms follow the SMILES beside them.

Consider `NCCCC[C@H](N)C(=O)N[C@@H](CCC(=O)O)C(=O)N[C@@H](CC(=O)O)C(=O)N[C@@H](Cc1c[nH]c2ccccc12)C(N)=O` [Lys-Glu-Asp-Trp-NH2, lysyl-glutamyl-aspartyl-tryptophane amid] (H-KEDW-NH2), for which the “decrease of daily insulin dose as compared to the initial level” value was found to be 26 units (Case No. 1) and 8 units (Case No. 2). Further, the coagulogram indices result (Case No. 1, at discharge) was “pronounced improvement”. Also, the “Daily dose of insulin” value (Case No. 1, at discharge, on admission 82 units) stood at 56 units. Also, the blood glucose level on an empty stomach is, setting by setting: (Case No. 1, type 2 diabetes, discharge on the 18th day, on admission 10 μmol/l) 5.9 mM; (Case No. 2, type 1 diabetes, discharge on the 15th day, on admission 17.8 μmol/l) 3.4 mM. The “Daily norm of insulin” value (Case No. 2, at discharge, on admission 40 units) is given as 32 units. For the same compound, the “reduction of the dose of diabeton” value (Case No. 3) is listed as “two-fold”. In addition, the blood glucose level result (Case No. 3, after the completion of the treatment course) is reported as “remained within the norm”. In addition, for the setting “Case No. 3, type 2 diabetes, second day, 100 μg tablet twice a day with 2 diabeton tablets, on admission 11 μmol/l”, the glucose level on an empty stomach amounted to 6 mM. The “patients of the main group with decrease of insulin dose” value (none in control group) was 50%. For the same compound, under setting [1], the “Decreased insulin dose necessary to achieve compensation, number of patients” value stood at 8. Besides, the “Increased insulin dose necessary to achieve compensation, number of patients” value under setting [1] was determined as 2. In addition, under setting [1], the “The same insulin dose necessary to achieve compensation, number of patients” value amounted to 6. For the same compound, where the note is “on average, in 8 patients out of 16”, the “reduction of the insulin daily dose” value is 8 units. Also, the “reduction of the dose of insulin” value (patients who received tetrapeptide in tablets daily) is listed as 25 units. Also, under setting [2], the compensation result was “full compensation”. Besides, the “reduction of the dose of oral anti-diabetic preparations” value under setting [2] is reported as “two-fold”. In addition, the “insulin dose increase to achieve compensation” value (the 1st patient) was found to be 4 units and the “insulin dose increase to achieve compensation” value (the 2nd patient) came to 14 units.

The values are drawn from patent US7491703B2, “Tetrapeptide regulating blood glucose level in diabetes mellitus” (“Access Bioscience” CJSC, priority 2003, dated 2009).
